{"source": "patent US9642874B2", "about": "“Compositions of selenoorganic compounds and methods of use thereof” (Alltech, Inc., priority 2014, dated 2017)", "key": {"[1]": {"test_system": "Insr", "test": "Insr mRNA expression (QRT-PCR) in AML-12 cells", "assay_type": "cell-based, mouse", "conditions": "insulin alone, 6 hours, without 8-CPT/Dex", "method": "(§1) For RNA analysis of insulin receptor (Insr), insulin like growth factor receptor (Igf1r), and Glucose-6-Phosphatase (G6pc), AML-12 cells were amplified in ITS, Dex and FBS-containing DMEM/F12 media, and cultured on 24-well (6.7×10^4 cells/well) plates in 10% FBS ITS-free DMEM/F12 media with or without Dex overnight. These cells were treated with control (water) or various compounds (diluted in 10% FBS ITS-free DMEM/F12 media with or without Dex) for 6 hours, 24 hours, or 48 hours.\n(§2) In some experiments, the AML-12 cells were washed twice with PBS after the compound treatments for 24 hours, and then incubated with selenium compounds (150 or 300 ppb of each compound) in the presence or absence of insulin (10 or 100 nM), 0.1 mM 8-CPT (Sigma), or 0.5 μM Dex in serum-free, glucose/phenol red-free DMEM media supplemented with 20 mM lactose and 2 mM pyruvate, and 15 mM HEPES (glucose-production media) for another 6 hours. After treatments, cell media were collected and subjected to glucose assays using Abcam glucose assay kit according to the manufacturer's protocol. […]\n(§3) Total RNA from these cells was isolated using Trizol (Invitrogen) according to the manufacturer's protocol, and then incubated with DNase I to remove any potential contaminated genomic DNA. […] Three to six samples were analyzed in each treatment group. […]"}, "[2]": {"test_system": "Igf1r", "test": "Igf1r mRNA expression (QRT-PCR) in AML-12 cells", "assay_type": "cell-based, mouse", "conditions": "insulin alone, 6 hours, without 8-CPT/Dex", "method": "as §1, §2, §3"}}, "data": [{"substance": "insulin: insulin (10 or 100 nM, Sigma) used as comparator and cotreatment", "values": [{"measurement": "Insr expression", "setting": "[1]", "result": "did not increase"}, {"measurement": "Igf1r expression", "setting": "[2]", "result": "did not increase"}]}]}
